Reference: patent US8093286B2, “Methods for treatment with bucindolol based on genetic targeting” (The Regents of the University of Colorado, a body corporate, priority 2004, dated 2012)
“And” between values parts separate entries of the source, which are not always exact repeats. Equal values may be shown once. Where a name gives a salt, the structure may show the parent alone. Marks after values point to notes of the source that are not given here.

System: patients with Class III/IV heart failure
Test: BEST trial, bucindolol vs placebo, clinical outcomes incl. DNA substudy and norepinephrine-change analyses
Assay type: in vivo
Settings: for hazard ratio for hospitalizations, bucindolol vs placebo: adjusted for position 49; for Crude mortality: bucindolol group; for Mortality (M) hazard ratio, NE change quartile 2nd/1st / Mortality (M) hazard ratio, NE change quartile 3rd/1st / Mortality (M) hazard ratio, NE change quartile 4th/1st / Mortality + CHF hospitalization (M + H) hazard ratio, NE change quartile 2nd/1st / Mortality + CHF hospitalization (M + H) hazard ratio, NE change quartile 3rd/1st / Mortality + CHF hospitalization (M + H) hazard ratio, NE change quartile 4th/1st: within bucindolol group; for hazard ratio for survival, bucindolol vs placebo: adjusted for position 49 variants, age, sex, race
Excerpt: Patients who participated in the Beta Blocker Evaluation of Survival Trial (BEST), (Lowes et al., 2002) and who consented for DNA substudies, were genotyped at the coding β1AR polymorphic sites. Enrollment in BEST was from May 31, 1995 to Dec. 31, 1998; the study design has been described in detail elsewhere (BEST Trial Investigators, 2001; and Lowes et al., 2002). Briefly, the study was a randomized, multicenter, placebo-controlled trial of the 3rd generation, nonselective β-blocker-vasodilator bucindolol (Bristow, 2000) in 2708 patients with Class III/IV heart failure (BEST Trial Investigators, 2001). Those receiving the active drug were administered 3 mg bucindolol twice daily for the first week, and up-titrated as tolerated on a weekly basis to 50 mg twice daily (or 100 mg twice daily for patients weighing >75 kg). Of the 2708 patients, 1040 consented for the substudy and had adequate DNA prepared from a blood sample. The study was approved by the BEST DNA Oversight Committee and the University of Cincinnati Institutional Review Board.
DNA was extracted from whole blood using standard techniques (Jones, 1963). Genotyping was performed using methods exactly as previously described in detail (Small et al., 2002). For the β1AR, variations at coding nucleotides 145 and 1165 were delineated, which correspond to amino acids 49 and 389. These alleles are designated as β1-Ser49, β1-Gly49 and β1-Arg389, β1-Gly389. All the DNA samples were successfully genotyped at the β1AR-389 locus and 1030 were successfully genotyped at β1AR-49.
The primary endpoints were all-cause mortality, hospitalizations adjudicated by an endpoints committee (BEST Trial Investigators, 2001) to be due to heart failure, and the combined endpoint of death or heart failure hospitalization. The variants at amino acid position 389 of the β1AR (Arg and Gly) were considered the primary genotypes hypothesized to influence […] efficacy. Continuous clinical variables are reported as mean ±SD, and comparisons were by t-test or Wilcoxon rank-sum tests. Categorical variables are reported as proportions and comparisons were by chi-square or Fisher's exact tests. Cumulative survival curves were constructed by Kaplan-Meier methods (Kaplan et al., 1958); and SAS (r) proprietary software, release 6.12. Cary, N.C.: SAS Institute, 1996). The Cox proportional-hazards regression model was used to examine the effects of treatment stratified by the indicated genotype. Results were adjusted for age, sex, race, and, as indicated, the β1-Gly49 polymorphism. Because of the limited number of comparisons, and an a priori hypothesis that was based on cell, transgenic, and other human studies […] Perez et al., 2003); and Wagoner et al., 2002), the P values <0.05 were considered to as significant, without adjustments for multiple comparisons.
Norepinephrine levels at baseline, or the change at 3 months were used to predict survival and the combined endpoint of mortality+CHF hospitalization. Absolute and log transformed data were initially analyzed. Because of skewness in norepinephrine levels natural log (Ln) transformed data were used in multivariate Cox proportional hazards regression models.
A Maximum Likelihood based method (Kalbfleisch et al., 1980) was used to categorize changes in norepinephrine into 3 groups for prediction of mortality or mortality+CHF hospitalization. This partitioning method finds the optimal split of norepinephrine values that maximize the likelihood of the resulting Cox proportional hazards model. In addition, a flexible cubic spline analysis (Green et al., 1994) was used to determine the shape and significance level of the relationship of norepinephrine changes at 3 months to survival.

[1] = 1st quartile of absolute NE change
[2] = 2nd quartile of absolute NE change
[3] = 3rd quartile of absolute NE change
[4] = 4th quartile of absolute NE change
[5] = BEST α2c DEL carrier (n = 207/1036)
[6] = BEST β1 389Arg/Arg + α2c DEL carriers (n = 73/1036)
[7] = BEST β1 389Arg/Arg + α2c WT/WT (n = 418/1036)
[8] = BEST β1 389 Gly carriers + DEL carriers (n = 134/1036)
[9] = BEST β1 389 Gly carriers + α2c WT/WT (n = 411/1036)
[10] = absolute NE change at 3 months, pg/ml
[11] = β1 389Arg/Arg and α2c WT/WT patients

## CC(C)(Cc1c[nH]c2ccccc12)NCC(O)COc1ccccc1C#N (stereo not drawn) [bucindolol, (2-{2-hydroxy-3{{2-(3-indolyl)-1,1-dimethylethyl}amino}propoxy}-benzonitrile hydrochloride)]
1st quartile of % NE change
  bucindolol/placebo hazard ratio, mortality (M): 1.03
  bucindolol/placebo hazard ratio, mortality + CHF hospitalization (M + H): 1.14
[1]
  bucindolol/placebo hazard ratio, mortality (M): 0.96
  bucindolol/placebo hazard ratio, mortality + CHF hospitalization (M + H): 1.19
2nd quartile of % NE change
  bucindolol/placebo hazard ratio, mortality (M): 0.98
  bucindolol/placebo hazard ratio, mortality + CHF hospitalization (M + H): 1.39
[2]
  bucindolol/placebo hazard ratio, mortality (M): 0.98
  bucindolol/placebo hazard ratio, mortality + CHF hospitalization (M + H): 1.30
3rd quartile of % NE change
  bucindolol/placebo hazard ratio, mortality (M): 0.56
  bucindolol/placebo hazard ratio, mortality + CHF hospitalization (M + H): 0.65
[3]
  bucindolol/placebo hazard ratio, mortality (M): 0.63
  bucindolol/placebo hazard ratio, mortality + CHF hospitalization (M + H): 0.58
4th quartile of % NE change
  bucindolol/placebo hazard ratio, mortality (M): 0.90
  bucindolol/placebo hazard ratio, mortality + CHF hospitalization (M + H): 0.66
[4]
  bucindolol/placebo hazard ratio, mortality (M): 0.80
  bucindolol/placebo hazard ratio, mortality + CHF hospitalization (M + H): 0.74
153 bucindolol subjects, NE reduction ≧244.5 pg/ml
  hazard ratio of subsequent mortality with norepinephrine reduction at 3 months (likelihood analysis): 1.69
Arg389 homozygotes
  hazard ratio for hospitalizations, bucindolol vs placebo: 0.63
[5]
  HF Hospitalization hazard ratio, bucindolol vs placebo: 0.76; 67 Ev
  Mortality + HF Hospitalization hazard ratio, bucindolol vs placebo: 0.89; 84 Ev
BEST α2c WT/WT (n = 829/1036)
  HF Hospitalization hazard ratio, bucindolol vs placebo: 0.74; 267 Ev
  Mortality + HF Hospitalization hazard ratio, bucindolol vs placebo: 0.72; 341 Ev
  Mortality hazard ratio, bucindolol vs placebo: 0.70; 155 Ev
BEST β1 389Arg/Arg (n = 493/1040), hydrochloride
  HF Hospitalization hazard ratio, bucindolol vs placebo: 0.64 and 0.64; 154
[6]
  HF Hospitalization hazard ratio, bucindolol vs placebo: 0.81; 73 Ev
  Mortality + HF Hospitalization hazard ratio, bucindolol vs placebo: 0.85; 34 Ev
  Mortality hazard ratio, bucindolol vs placebo: 0.71; 13 Ev
[7]
  HF Hospitalization hazard ratio, bucindolol vs placebo: 0.59; 126 Ev
  Mortality + HF Hospitalization hazard ratio, bucindolol vs placebo: 0.61; 156 Ev
  Mortality hazard ratio, bucindolol vs placebo: 0.60; 69 Ev
[8]
  HF Hospitalization hazard ratio, bucindolol vs placebo: 0.62; 134 Ev
  Mortality + HF Hospitalization hazard ratio, bucindolol vs placebo: 0.81; 50 Ev
  Mortality hazard ratio, bucindolol vs placebo: 1.35; 24 Ev
[9]
  HF Hospitalization hazard ratio, bucindolol vs placebo: 0.93; 411 Ev
  Mortality + HF Hospitalization hazard ratio, bucindolol vs placebo: 0.86; 185 Ev
  Mortality hazard ratio, bucindolol vs placebo: 0.82; 86 Ev
Bucindolol Incr subgroup, n = 137
  Number of deaths (%): 43 (31%)*
Bucindolol Inter subgroup, n = 551
  Number of deaths (%): 114 (21%)
Bucindolol Redxn subgroup, n = 153
  Number of deaths (%): 52 (34%)*
Gly389 carriers
  hazard ratio for hospitalizations, bucindolol vs placebo: 0.85
1st quartile of % NE change (< −30.2)
  Crude mortality: 25.2%
1st quartile of absolute NE change (< −144 pg/ml)
  Crude mortality: 26.1%
2nd quartile of % NE change (−30.2 to < −2.5)
  Crude mortality: 26.0%
2nd quartile of absolute NE change (−144 to < −9 pg/ml)
  Crude mortality: 25.7%
3rd quartile of % NE change (−2.5 to 31.1)
  Crude mortality: 18.8%
3rd quartile of absolute NE change (−9 to 111 pg/ml)
  Crude mortality: 17.7* %
4th quartile of % NE change (> 31.1)
  Crude mortality: 29.1%
4th quartile of absolute NE change (> 111 pg/ml)
  Crude mortality: 28.6%
Bucindolol subgroup with NE reduction ≧244.5 pg/ml (Group 1) vs intermediate change group, hydrochloride
  increased risk of subsequent mortality with marked norepinephrine reduction at 3 months: 1.7 fold and 1.65 fold
bucindolol-treated, BSL NE 64-356 pg/ml (146)
  Mortality hazard ratio, Arg/Arg:Gly carrier: 0.90
bucindolol-treated, BSL NE 358-545 pg/ml (144)
  Mortality hazard ratio, Arg/Arg:Gly carrier: 0.74
bucindolol-treated, BSL NE 546-2571 pg/ml (149)
  Mortality hazard ratio, Arg/Arg:Gly carrier: 0.68
bucindolol-treated, Group 1, change in NE @ 3 mos <−244 (70)
  Mortality hazard ratio, Arg/Arg:Gly carrier: 1.07
bucindolol-treated, Group 2, change in NE @ 3 mos −244 to 145 (248)
  Mortality hazard ratio, Arg/Arg:Gly carrier: 0.82
bucindolol-treated, Group 3, change in NE @ 3 mos >145 (54)
  Mortality hazard ratio, Arg/Arg:Gly carrier: 0.36
bucindolol-treated, increasing norepinephrine group (>145 pg/ml)
  relatively better mortality reduction of Arg homozygotes vs Gly carriers: 64%
% NE change at 3 months
  Mortality (M) hazard ratio, NE change quartile 2nd/1st: 1.14
  Mortality (M) hazard ratio, NE change quartile 3rd/1st: 0.77
  Mortality (M) hazard ratio, NE change quartile 4th/1st: 1.19
  Mortality + CHF hospitalization (M + H) hazard ratio, NE change quartile 2nd/1st: 1.18
  Mortality + CHF hospitalization (M + H) hazard ratio, NE change quartile 3rd/1st: 0.91
  Mortality + CHF hospitalization (M + H) hazard ratio, NE change quartile 4th/1st: 1.18
[10]
  Mortality (M) hazard ratio, NE change quartile 2nd/1st: 0.99
  Mortality (M) hazard ratio, NE change quartile 3rd/1st: 0.66
  Mortality (M) hazard ratio, NE change quartile 4th/1st: 1.15
  Mortality + CHF hospitalization (M + H) hazard ratio, NE change quartile 2nd/1st: 1.00
  Mortality + CHF hospitalization (M + H) hazard ratio, NE change quartile 3rd/1st: 0.83
  Mortality + CHF hospitalization (M + H) hazard ratio, NE change quartile 4th/1st: 1.10
α2c DEL 322-325 and β1 389Gly carriers
  increase in CV mortality: 36%
α2c DEL 322-325 carriers
  increase in cardiovascular mortality: 3%
α2c DEL 322-325 carriers who are β1 389Gly carriers, hydrochloride
  increase in all-cause mortality: 36% and 35%
α2c WT/WT patients
  reduction in cardiovascular mortality: 41%
α2c wild type patients
  reduction in mortality plus HF hospitalization: 28%
α2cAR wild type (WT/WT) patients, hydrochloride
  reduction in all-cause mortality: 29% and 30%
α2cAR wild type patients who are β1 389Gly carriers (nonsignificant)
  reduction in mortality: 22%
α2cAR-Del322-325 carriers with β1AR-389Arg/Arg
  mortality reduction: 18%
α2cAR-Del322-325 carriers, hydrochloride
  increase in all-cause mortality: 10% and 9%
[11]
  reduction in all-cause mortality: 40%
  reduction in cardiovascular mortality: 47%
  reduction in mortality + heart failure hospitalization: 39%
β1 389Arg/Arg patients
  reduction in cardiovascular mortality: 46%
β1 389Gly carriers (nonsignificant)
  reduction in all-cause mortality: 10%
β1 389Gly carriers (p=NS)
  reduction in cardiovascular mortality: 22%
β1-389 Arg/Arg + α2c wild type patients
  reduction in HF hospitalization: 41%
β1-Arg389 homozygotes
  hazard ratio for survival, bucindolol vs placebo: 0.62
β1-Gly389 carriers
  hazard ratio for survival, bucindolol vs placebo: 0.89
β1AR-389Arg/Arg patients
  reduction in all-cause mortality (improvement in survival): 38%
